Experimental data: patent US4178449A, “Pyrazolo[1,5-a]pyrimidines and imidazo-[1,5-a]pyrimidines” (American Cyanamid Company, priority 1978, dated 1979)

Tests used:
[1] = test system: pentylenetetrazole clonic seizures in rats; test: protection from convulsions resulting from the administration of pentylenetetrazole; type: in vivo, rat; set-up: key: Active: The test compounds are considered active if they protect 50% or more of the rats from clonic seizures; details: oral or intraperitoneal, single or graded doses, pentylenetetrazole 21 to 23 mg./kg. i.v. at 30 or 60 minutes
Experimental: The anti-anxiety properties of the novel compounds of the present invention have been established in a test which indicates anxiolytic activity by the measure of protection from convulsions resulting from the administration of pentylenetetrazole. Single or graded dose levels of the test compounds were administered orally or intraperitoneally in a 2% starch vehicle, to groups of at least 4 rats. At 30 or 60 minutes, the rats were treated intravenously with pentylenetetrazole at a dose of 21 to 23 mg./kg. of body weight. This dose is estimated to cause clonic seizures in 99% of unprotected rats. The test compounds are considered active if they protect 50% or more of the rats from clonic seizures. It has been reported [R. T. Hill and D. H. Tedeschi, "Animal Testing and Screening Procedures in Evaluating Psychotropic Drugs" in "An Introduction to Psychopharmacology", Eds. R. R. Rech and K. E. Moore, Raven Press, New York, pp. 237-288 (1971)] that there is a high degree of correlation between antagonism of pentylenetetrazole seizures in rats and anti-anxietyeffects in higher warm-blooded animals.

[2] = test system: conflict situation (shocks taken) in Wistar strain rats; test: non-conditioned passive avoidance (conflict) procedure; type: in vivo, rat; set-up: key: Active: The test compounds are considered active if the shocks received by the test group are significantly different from the control group by the Mann-Whitney U test; details: oral or intraperitoneal, single or graded doses, tested at 30 or 60 minutes, 5 minute interval
Experimental: Another test which has been used to assess anti-anxiety effect is a non-conditioned passive avoidance procedure described by J. R. Vogel, B. Beer and D. E. Clody, "A Simple and Reliable Conflict Procedure for Testing Anti-Anxiety Agents", Psychopharmacologia, 21, 1-7 (1971). A conflict situation is induced in rats by a modification of this method. Groups of 6 naive, Wistar strain rats, weighing 200-240 g. each were deprived of water for 48 hours and food for 24 hours. The test compounds were administered in single or graded, oral or intraperitoneal doses suspended in a 2% starch vehicle containing 0.5% v/v polyethylene glycol and one drop of Polysorbate 80. Control animals received the vehicle alone. At 30 or 60 minutes each rat was placed in individual black plexiglass chambers. A 10% dextrose solution was available ad libitum from a tap located in the rear of the chamber. A 0.3 milliampere constant current 60 Hz pulsed DC shocking current was established between the stainless steel grid floor and the tap. After 20 seconds of non-shocked drinking, an alternating 5 second "shock-on" and 5 second "shock-off" cycle began and continued for a total of 5 minutes. The number of shocks taken by each rat during the 5 minute interval was recorded and compared to a control group. […]

[3] = test system: 3H-diazepam binding to the brain receptors (rat frontal cortex P2-synaptosomal fraction); test: inhibition of 3H-diazepam binding to brain receptors; set-up: key: Active: A compound which exhibits the ability to inhibit binding by ≥20% is considered to be active; details: 3H-diazepam (1.5 mM.), 20 minutes in ice
Source text: Another test used to measure anxiolytic activity comprises measurement of the ability of test compounds to inhibit the binding of ^3 H-diazepam to the brain receptors of warm-blooded animals. The test is described by R. F. Squires in Nature, 266, No. 21 page 732 (April 1977) and H. Mohler and T. Okada, Science, 198, 849 (1977). A modification of this test was employed wherein the animals used were male albino rats of the Wistar strain, weighing 150-200 g. each from Royalhart Farms. Diazepam (methyl-^3 H) was obtained from New England Nuclear. The test compounds were solubilized in either dimethylformamide, acetic acid, ethanol or hydrochloric acid. Frontal cortex of rats was homogenized gently in 20 volumes of ice-cold 0.32 M. sucrose, centrifuged twice at 1000 g. for 10 minutes and then recentrifuged at 30,000 g. for 20 minutes to produce a crude P2 -synaptosomal fraction. The P2 -fraction was resuspended, twice the original volume, in hypotonic 50 mM. Tris.HCl (pH 7.4). The binding assay consisted of 300 μl. of the P2 -fraction suspension (0.350 mg.), 100 μl. of test drug and 100 μl. of ^3 H-diazepam ([…].),. which was added to 1.5 ml. of 50 mM. Tris.HCl (pH 7.4). Non-specific binding controls and total binding controls received 100 μl. of diazepam (3 μm.) and 100 μl. of deionized water, respectively, in place of the test compound. Incubation for 20 minutes proceeded in ice and was terminated by filtration, under vacuum, through Whatman GF/C glass fiber filters. The filters were washed twice with 5 ml. of ice-cold 50 mM. Tris.HCl (pH 7.4) and placed in scintillation vials. After drying at 50°-60° C. for 30 minutes, 10 ml. of Beckman Ready-Solve HP was added and the radioactivity determined in a Beckman Scintillation Counter. The percentage of inhibition of diazepam binding is calculated for each compound. […] Representative compounds of the present invention which were active when tested by the diazepam binding assay are set forth in Table III below.

CCOC(=O)c1cnn2c(-c3cccc(C(F)(F)F)c3)ccnc12 [Example 16, 7-(α,α,α-Trifluoro-m-tolyl)pyrazolo[1,5-a]pyrimidine-3-carboxylic acid ethyl ester]
Active: Result (protection from pentylenetetrazole clonic seizures) [1] | Result (number of shocks taken vs control, conflict procedure) [2] | Result (inhibition of 3H-diazepam binding) [3]

N#Cc1ncn2c(-c3cccc(C(F)(F)F)c3)ccnc12 [Example 29, 4-(α,α,α-Trifluoro-m-tolyl)imidazo[1,5-a]pyrimidine-8-carbonitrile]
Active: Result (protection from pentylenetetrazole clonic seizures) [1] | Result (number of shocks taken vs control, conflict procedure) [2] | Result (inhibition of 3H-diazepam binding) [3]
